From ChEMBL document CHEMBL5143599, “Unraveling the Design and Discovery of c-Jun N-Terminal Kinase Inhibitors and Their Therapeutic Potential in Human Diseases” (J Med Chem, 2022)
Non-standard residues stand in square brackets, D forms with d. Residues, ends and D or L forms follow the SMILES beside them. Ahx = NCCCCCC(=O)O

Key:
[1] = molecular target: T1, Mitogen-activated protein kinase 10 (Homo sapiens, UniProt P53779); assay: Inhibition of JNK3 (unknown origin) irradiated with 400 nm light
T1 sequence (P53779 whole entry): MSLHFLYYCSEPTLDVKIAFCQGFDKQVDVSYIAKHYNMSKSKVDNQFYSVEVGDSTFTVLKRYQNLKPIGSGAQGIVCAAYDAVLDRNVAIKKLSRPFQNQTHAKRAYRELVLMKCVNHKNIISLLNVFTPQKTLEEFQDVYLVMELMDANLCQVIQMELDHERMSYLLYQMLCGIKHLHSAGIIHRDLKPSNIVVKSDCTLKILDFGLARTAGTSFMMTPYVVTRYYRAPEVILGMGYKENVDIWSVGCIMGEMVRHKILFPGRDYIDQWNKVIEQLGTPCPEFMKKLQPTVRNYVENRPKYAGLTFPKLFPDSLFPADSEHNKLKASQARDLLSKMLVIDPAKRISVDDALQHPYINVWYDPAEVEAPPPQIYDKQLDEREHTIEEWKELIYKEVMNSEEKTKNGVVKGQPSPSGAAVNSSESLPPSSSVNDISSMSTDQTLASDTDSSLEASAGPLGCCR

[2] = molecular target: T1, Mitogen-activated protein kinase 10; assay: Inhibition of JNK3 (unknown origin) in dark
[3] = molecular target: T2, Mitogen-activated protein kinase 8 (Homo sapiens, UniProt P45983); assay: Inhibition of JNK1 (unknown origin) incubated for 1 hr by TR-FRET assay
T2 sequence (P45983 whole entry): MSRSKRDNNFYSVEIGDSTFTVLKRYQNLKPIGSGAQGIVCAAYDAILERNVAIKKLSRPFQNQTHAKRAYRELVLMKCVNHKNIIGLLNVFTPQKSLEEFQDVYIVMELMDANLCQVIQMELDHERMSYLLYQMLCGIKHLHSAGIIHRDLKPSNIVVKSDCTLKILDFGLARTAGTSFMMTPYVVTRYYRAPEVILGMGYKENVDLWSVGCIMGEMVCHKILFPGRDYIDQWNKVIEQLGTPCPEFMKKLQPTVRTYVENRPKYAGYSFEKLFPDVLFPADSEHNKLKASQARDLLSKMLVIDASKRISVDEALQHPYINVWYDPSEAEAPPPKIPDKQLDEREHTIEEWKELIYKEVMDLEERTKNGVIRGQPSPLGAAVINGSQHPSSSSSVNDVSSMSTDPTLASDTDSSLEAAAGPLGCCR

[4] = molecular target: T1, Mitogen-activated protein kinase 10; assay: Inhibition of JNK3 (unknown origin) using biotinylated FL-ATF-2 as substrate incubated for 15 mins by HTRF assay
[5] = molecular target: T2, Mitogen-activated protein kinase 8; assay: Inhibition of JNK1 (unknown origin) using biotinylated FL-ATF-2 as substrate incubated for 15 mins by HTRF assay
[6] = molecular target: Mitogen-activated protein kinase 9 (Homo sapiens, UniProt P45984); assay: Inhibition of JNK2 (unknown origin) using GST-c-jun (1-221) as substrate by scintillation counter analysis
Mitogen-activated protein kinase 9, sequence (P45984 whole entry): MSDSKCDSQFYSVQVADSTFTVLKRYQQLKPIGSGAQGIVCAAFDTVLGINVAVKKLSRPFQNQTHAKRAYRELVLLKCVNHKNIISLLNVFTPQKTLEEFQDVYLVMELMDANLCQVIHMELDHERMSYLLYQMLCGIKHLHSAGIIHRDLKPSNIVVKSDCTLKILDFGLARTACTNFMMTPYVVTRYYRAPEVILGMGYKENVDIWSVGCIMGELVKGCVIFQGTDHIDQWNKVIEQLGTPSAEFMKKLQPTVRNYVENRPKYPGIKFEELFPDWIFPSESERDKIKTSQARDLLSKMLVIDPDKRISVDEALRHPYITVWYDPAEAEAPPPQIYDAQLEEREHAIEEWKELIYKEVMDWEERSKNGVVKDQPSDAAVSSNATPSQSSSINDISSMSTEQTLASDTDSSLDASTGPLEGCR

[7] = molecular target: T1, Mitogen-activated protein kinase 10; assay: Inhibition of JNK3 (unknown origin) using GST-c-jun (1-221) as substrate by scintillation counter analysis
[8] = molecular target: T2, Mitogen-activated protein kinase 8; assay: Inhibition of JNK1 (unknown origin) using GST-c-jun (1-221) as substrate by scintillation counter analysis
[9] = molecular target: T1, Mitogen-activated protein kinase 10; assay: Inhibition of JNK3 (unknown origin)
[10] = molecular target: Leucine-rich repeat serine/threonine-protein kinase 2 (Homo sapiens, UniProt Q5S007); assay: Inhibition of LRRK2 (unknown origin)
Leucine-rich repeat serine/threonine-protein kinase 2, sequence (Q5S007 whole entry): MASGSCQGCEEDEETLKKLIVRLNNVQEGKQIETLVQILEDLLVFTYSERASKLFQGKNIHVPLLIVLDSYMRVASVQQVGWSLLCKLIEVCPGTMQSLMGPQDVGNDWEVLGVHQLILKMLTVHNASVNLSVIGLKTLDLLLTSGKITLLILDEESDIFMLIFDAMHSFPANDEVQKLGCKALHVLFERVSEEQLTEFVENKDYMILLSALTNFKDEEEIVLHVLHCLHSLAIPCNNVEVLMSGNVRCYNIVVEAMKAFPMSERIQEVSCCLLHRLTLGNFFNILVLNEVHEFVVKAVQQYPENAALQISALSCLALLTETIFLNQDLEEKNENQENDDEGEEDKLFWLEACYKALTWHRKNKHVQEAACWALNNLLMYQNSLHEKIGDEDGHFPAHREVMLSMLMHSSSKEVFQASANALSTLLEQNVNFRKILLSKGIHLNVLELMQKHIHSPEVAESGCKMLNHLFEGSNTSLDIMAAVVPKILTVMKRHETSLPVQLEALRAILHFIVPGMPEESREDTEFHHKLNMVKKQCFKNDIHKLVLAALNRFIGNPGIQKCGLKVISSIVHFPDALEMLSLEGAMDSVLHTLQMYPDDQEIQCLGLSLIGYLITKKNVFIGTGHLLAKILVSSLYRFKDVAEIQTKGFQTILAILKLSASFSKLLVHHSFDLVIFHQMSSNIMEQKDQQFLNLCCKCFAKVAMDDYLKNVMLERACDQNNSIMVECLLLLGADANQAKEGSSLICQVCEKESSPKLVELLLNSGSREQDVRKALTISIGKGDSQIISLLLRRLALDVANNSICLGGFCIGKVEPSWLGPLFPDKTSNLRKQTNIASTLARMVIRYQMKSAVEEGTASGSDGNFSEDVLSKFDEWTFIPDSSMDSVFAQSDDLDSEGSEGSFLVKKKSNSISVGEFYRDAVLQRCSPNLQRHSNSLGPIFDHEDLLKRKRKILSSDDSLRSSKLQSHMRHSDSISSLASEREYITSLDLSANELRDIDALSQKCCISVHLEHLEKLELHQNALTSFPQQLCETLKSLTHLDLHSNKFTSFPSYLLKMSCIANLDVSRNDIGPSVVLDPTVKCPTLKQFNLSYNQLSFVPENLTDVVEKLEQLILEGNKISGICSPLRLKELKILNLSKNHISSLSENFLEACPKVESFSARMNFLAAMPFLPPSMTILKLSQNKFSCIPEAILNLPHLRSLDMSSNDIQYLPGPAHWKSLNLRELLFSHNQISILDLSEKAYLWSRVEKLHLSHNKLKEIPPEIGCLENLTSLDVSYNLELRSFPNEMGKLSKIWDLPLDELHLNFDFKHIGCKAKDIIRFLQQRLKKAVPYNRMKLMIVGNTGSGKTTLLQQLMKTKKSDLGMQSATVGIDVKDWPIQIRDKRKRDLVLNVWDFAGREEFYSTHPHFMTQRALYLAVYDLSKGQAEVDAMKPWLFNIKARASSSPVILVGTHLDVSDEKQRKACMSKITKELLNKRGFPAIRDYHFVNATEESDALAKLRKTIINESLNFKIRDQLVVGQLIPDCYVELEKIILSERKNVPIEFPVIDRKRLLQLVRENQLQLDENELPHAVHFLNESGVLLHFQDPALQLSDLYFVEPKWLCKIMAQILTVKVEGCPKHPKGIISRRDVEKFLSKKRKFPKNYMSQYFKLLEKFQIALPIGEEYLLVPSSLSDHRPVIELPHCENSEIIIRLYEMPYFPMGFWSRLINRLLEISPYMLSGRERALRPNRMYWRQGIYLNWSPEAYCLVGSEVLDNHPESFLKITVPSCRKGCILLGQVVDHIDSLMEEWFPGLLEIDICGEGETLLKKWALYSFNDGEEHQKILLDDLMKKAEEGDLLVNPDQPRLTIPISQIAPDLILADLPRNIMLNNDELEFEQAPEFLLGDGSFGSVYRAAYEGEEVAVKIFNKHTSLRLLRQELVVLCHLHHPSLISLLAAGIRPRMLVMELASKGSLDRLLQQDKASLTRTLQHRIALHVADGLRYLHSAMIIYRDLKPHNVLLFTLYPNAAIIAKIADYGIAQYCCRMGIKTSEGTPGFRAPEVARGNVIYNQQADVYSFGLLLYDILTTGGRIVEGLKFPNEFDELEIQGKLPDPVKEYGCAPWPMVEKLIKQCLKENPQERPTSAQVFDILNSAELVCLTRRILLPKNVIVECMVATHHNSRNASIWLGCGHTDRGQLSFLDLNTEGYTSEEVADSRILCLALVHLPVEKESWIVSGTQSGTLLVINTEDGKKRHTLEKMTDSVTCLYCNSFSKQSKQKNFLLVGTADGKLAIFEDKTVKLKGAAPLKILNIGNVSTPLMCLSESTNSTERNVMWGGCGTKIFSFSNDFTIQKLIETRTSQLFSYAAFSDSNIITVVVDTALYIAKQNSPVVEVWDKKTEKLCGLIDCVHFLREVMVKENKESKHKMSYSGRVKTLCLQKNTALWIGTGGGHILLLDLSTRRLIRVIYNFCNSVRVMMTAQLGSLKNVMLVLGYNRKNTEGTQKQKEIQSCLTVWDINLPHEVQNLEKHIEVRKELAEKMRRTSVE

[11] = molecular target: Mitogen-activated protein kinase 14 (Homo sapiens, UniProt Q16539); assay: Inhibition of p38alpha (unknown origin)
Mitogen-activated protein kinase 14, sequence (Q16539 whole entry): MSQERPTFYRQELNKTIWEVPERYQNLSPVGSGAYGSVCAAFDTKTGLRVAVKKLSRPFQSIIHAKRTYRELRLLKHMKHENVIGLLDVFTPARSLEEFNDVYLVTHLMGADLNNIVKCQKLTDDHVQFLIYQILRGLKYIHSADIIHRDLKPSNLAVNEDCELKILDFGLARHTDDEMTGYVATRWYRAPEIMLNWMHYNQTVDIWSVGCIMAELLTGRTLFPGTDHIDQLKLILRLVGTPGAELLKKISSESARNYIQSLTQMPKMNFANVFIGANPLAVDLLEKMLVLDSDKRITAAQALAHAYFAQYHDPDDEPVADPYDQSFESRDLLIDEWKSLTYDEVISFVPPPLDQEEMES

[12] = molecular target: T2, Mitogen-activated protein kinase 8; assay: Inhibition of JNK1 (unknown origin)
[13] = molecular target: T3, c-Jun N-terminal kinase, JNK (Homo sapiens, UniProt P45983+P53779+P45984); assay: Inhibition of c-Jun phosphorylation in human HeLa cells; assay type: cell-based
[14] = molecular target: T3, c-Jun N-terminal kinase, JNK; assay: Inhibition of c-Jun phosphorylation in human A-375 cells; assay type: cell-based
[15] = molecular target: Mitogen-activated protein kinase 8 (Mus musculus, UniProt Q91Y86); assay: Inhibition of JNK1 in mouse JB6 C1 41 cell lysate incubated for 1 hr relative to control; assay type: subcellular, JB6 Cl 41-5a
Mitogen-activated protein kinase 8 (Mus musculus, UniProt Q91Y86), sequence (Q91Y86 whole entry): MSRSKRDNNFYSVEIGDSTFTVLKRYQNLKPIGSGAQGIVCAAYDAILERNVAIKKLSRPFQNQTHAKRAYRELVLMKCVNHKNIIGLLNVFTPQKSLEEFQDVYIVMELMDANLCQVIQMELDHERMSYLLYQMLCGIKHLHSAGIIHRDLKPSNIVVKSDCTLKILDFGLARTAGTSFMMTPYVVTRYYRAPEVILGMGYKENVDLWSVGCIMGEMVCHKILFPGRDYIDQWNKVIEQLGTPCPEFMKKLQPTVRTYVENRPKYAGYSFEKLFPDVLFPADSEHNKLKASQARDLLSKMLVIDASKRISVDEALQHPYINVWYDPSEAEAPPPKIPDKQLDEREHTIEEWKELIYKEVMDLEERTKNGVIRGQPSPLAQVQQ

[16] = Inhibition of transformation of H-RAS induced mouse JB6 C1 41 cells at 5 uM; assay type: functional, JB6 Cl 41-5a; set-up: scale not given: the % may be the effect or the level left
[17] = Antitumor activity against UVB-induced skin cancer SKH-1 mouse model assessed as reduction in tumor growth at 4 nmol, top relative to control; assay type: functional, Tumor cell line; set-up: scale not given: the % may be the effect or the level left
[18] = Antitumor activity against UVB-induced skin cancer SKH-1 mouse model assessed as reduction in tumor growth at 20 nmol, top relative to control; assay type: functional, Tumor cell line; set-up: scale not given: the % may be the effect or the level left

Compound: O=[N+]([O-])c1cnc(Sc2nnc(O)n2-c2ccc3c(c2)OCCO3)s1
- IC50 [1]: 31.9 nM
- IC50 [2]: 507 nM

Compound: COCCNc1nnc(Sc2ncc([N+](=O)[O-])s2)s1
- IC50 [3]: 280 nM

Compound: Cc1ccc(NC(=O)c2cccc(-n3cc(NC(=O)Nc4ccccc4Cl)cn3)c2)cn1
- IC50 [4]: 55 nM
- IC50 [5]: 1400 nM

Compound: CC[C@H](C)[C@H](NC(=O)[C@@H]1CCCN1)C(=O)N[C@@H](CS)C(=O)N[C@@H](CCCNC(=N)N)C(=O)N1CCC[C@H]1C(=O)N[C@H](C(=O)N[C@H](C(=O)N[C@@H](CC(C)C)C(=O)N[C@@H](CC(N)=O)C(=O)N[C@@H](CC(C)C)C(=O)N[C@@H](Cc1ccccc1)C(=O)NCCCCCC(=O)N[C@@H](CCCNC(=N)N)C(=O)N[C@@H](CCCNC(=N)N)C(=O)N[C@@H](C)C(=O)N[C@@H](CCCNC(=N)N)C(=O)N[C@@H](CCCNC(=N)N)C(=O)N[C@@H](C)C(=O)N[C@@H](CCCNC(=N)N)C(=O)N[C@@H](CCCNC(=N)N)C(=O)N[C@@H](CCCNC(=N)N)C(=O)O)[C@@H](C)O)[C@@H](C)O (H-PICRPTTLNLF[Ahx]RRARRARRR-OH)
- IC50 [6]: 89 nM
- IC50 [7]: 1200 nM
- IC50 [8]: 1100 nM

Compound: O=C(CSc1c(-c2ccccc2)c2cc(Cl)ccc2[nH]c1=O)NC1CCCC1
- IC50 [9]: 58.2 nM

Compound: CC(C)CN(CC(=O)NCCCCCCNC(=O)c1ccc(-c2n[nH]c3ccccc23)cc1)C(=O)CNC(=O)C1COc2ccccc2C1 (stereo unspecified)
- IC50 [9]: 99 nM
- IC50 [10]: 12 nM

Compound: C=CC(=O)Nc1cccc(C(=O)Nc2ccc(Nc3cc(-c4c(C)nc(SC)n4C)ccn3)cc2)c1
- IC50 [9]: 2000 nM
- IC50 [11]: 1950 nM

Compound: O=c1c(O)c(-c2cc(O)c(O)c(O)c2)oc2cc(O)c(O)c(O)c12
- IC50 [12]: 3400 nM

Compound: CN(C)C/C=C/C(=O)Nc1cccc(C(=O)Nc2ccc(Nc3nccc(-c4c(-c5ccccc5)nn5ccccc45)n3)cc2)c1
- EC50 [13]: 48 nM
- EC50 [14]: 8.6 nM

Compound: O=c1c(O)c(-c2ccc(O)c(O)c2)oc2cc(O)c(O)c(O)c12 [QUERCETAGETIN]
- IC50 [15]: 4600 nM
- Activity [16]: 73%
- Activity [17]: 32%
- Activity [18]: 46.7%

Compound: CSc1nc(C)c(-c2ccnc(Nc3ccc(N4CCOCC4)cc3)c2)[nH]1
- IC50 [9]: 184 nM
- IC50 [11]: > 10000 nM

Compound: O=c1c(O)c(-c2cc(O)c(O)c(CO)c2)oc2cc(O)c(O)c(O)c12
- IC50 [12]: 12200 nM

Compound: H-PKRPTTLNLFRRRQRRKKRG-OH
- IC50 [6]: 92 nM
- IC50 [7]: 1200 nM
- IC50 [8]: 1160 nM
